Results taken from PubChem BioAssay AID588414 (Sanford-Burnham Center for Chemical Genomics, 2011).
Activity calls are given as the source filed them.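 The calls were made as follows: active = IC50 at or below 20 µM; inactive = the rest.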

These compounds were tested against Glucose-6-phosphate 1-dehydrogenase (Homo sapiens) (UniProt P11413) (assay: inhibition of human G6PD activity – biochemical, fluorescence, dose response, selectivity assay for P. falciparum G6PD inhibitor project, SAR follow-up (AID 588414)). Details: NADPH-diaphorase-resazurin fluorescence.
Glucose-6-phosphate 1-dehydrogenase (Homo sapiens), sequence (P11413 whole entry, looked up): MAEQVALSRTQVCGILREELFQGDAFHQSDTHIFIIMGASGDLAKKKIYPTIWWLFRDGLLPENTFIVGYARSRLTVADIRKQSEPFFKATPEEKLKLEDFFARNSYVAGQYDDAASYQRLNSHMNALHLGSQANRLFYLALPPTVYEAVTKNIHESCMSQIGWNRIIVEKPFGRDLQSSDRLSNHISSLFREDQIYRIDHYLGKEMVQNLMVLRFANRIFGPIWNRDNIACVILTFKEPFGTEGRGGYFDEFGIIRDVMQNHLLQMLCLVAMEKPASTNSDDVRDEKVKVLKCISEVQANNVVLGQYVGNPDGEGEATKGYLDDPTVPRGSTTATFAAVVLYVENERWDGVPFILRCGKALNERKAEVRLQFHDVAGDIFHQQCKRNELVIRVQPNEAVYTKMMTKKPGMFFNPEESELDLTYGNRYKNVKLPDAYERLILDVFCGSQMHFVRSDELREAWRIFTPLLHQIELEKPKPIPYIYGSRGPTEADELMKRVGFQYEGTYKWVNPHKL

| SMILES | IC50 |
| --- | --- |
| O=C(Nc1nnc(S(=O)(=O)N2CCCCCC2)s1)c1ccc(F)cc1 | > 80 µM (inactive) |
| O=C(Nc1nnc(S(=O)(=O)N2CCCCC2)s1)c1cccc(F)c1 | > 80 µM (inactive) |
| CCN1CCCC1CNC(=O)c1ccc2c(c1)NC(=O)/C(=C\c1ccc(C)cc1)S2 (stereo not drawn) | > 80 µM (inactive) |
| CCN1CCCC1CNC(=O)c1ccc2c(c1)N(Cc1ccc(C(F)(F)F)cc1)C(=O)c1ccccc1S2 (stereo not drawn) | > 80 µM (inactive) |
| CCN(CC)CCNC(=O)c1ccc2c(c1)NC(=O)/C(=C\c1ccc(OC)c(OC)c1)S2 | > 80 µM (inactive) |
| Cc1ccc(CN2C(=O)c3ccccc3Sc3ccc(C(=O)NCCN(C)C)cc32)cc1 | > 80 µM (inactive) |
| O=C1Nc2cc(C(=O)NCCN3CCCC3)ccc2S/C1=C/c1ccccc1F | > 80 µM (inactive) |
| CCN(CC)CCNC(=O)c1ccc2c(c1)NC(=O)c1ccccc1S2 | > 80 µM (inactive) |
| O=C(Nc1nnc(S(=O)(=O)N2CCCCCC2)s1)c1cccc(F)c1 | > 80 µM (inactive) |
| O=C(Nc1nnc(S(=O)(=O)N2CCCc3ccccc32)s1)c1cccc(F)c1 | > 80 µM (inactive) |
| CCN(CCNC(=O)c1ccc2c(c1)NC(=O)c1ccccc1S2)c1ccccc1 | > 80 µM (inactive) |
| CCN1CCCC1CNC(=O)c1ccc2c(c1)NC(=O)/C(=C\c1ccccc1F)S2 (stereo not drawn) | > 80 µM (inactive) |
| CCC(C)N(CCNC(=O)c1ccc2c(c1)NC(=O)c1ccccc1S2)C1CCCCC1 (stereo not drawn) | > 80 µM (inactive) |
| COc1cccc(C(=O)Nc2nnc(S(=O)(=O)N3CCCCCC3)s2)c1 | > 80 µM (inactive) |
| COc1ccc(/C=C2/Sc3ccc(C(=O)NCCN4CCCC4)cc3NC2=O)cc1 | > 80 µM (inactive) |
| CCCN(CCC)CCNC(=O)c1ccc2c(c1)NC(=O)/C(=C\c1ccc(C)cc1)S2 | > 80 µM (inactive) |
| COc1cccc(/C=C2/Sc3ccc(C(=O)NCCN4CCCCCC4)cc3NC2=O)c1 | > 80 µM (inactive) |
| CCN1CCCC1CNC(=O)c1ccc2c(c1)NC(=O)/C(=C\c1ccccc1Cl)S2 (stereo not drawn) | > 80 µM (inactive) |
| CCCN(CCC)CCNC(=O)c1ccc2c(c1)NC(=O)/C(=C/c1ccccc1)S2 | > 80 µM (inactive) |
| Cc1cccc(C(=O)Nc2nnc(S(=O)(=O)N3CCCCCC3)s2)c1 | > 80 µM (inactive) |
| CCN(CC)CCNC(=O)c1ccc2c(c1)NC(=O)/C(=C\c1cccc(C)c1)S2 | > 80 µM (inactive) |
| CCN(CCNC(=O)c1ccc2c(c1)N(CC)C(=O)c1ccccc1S2)c1ccccc1 | > 80 µM (inactive) |
| COc1ccc(C(=O)Nc2nnc(S(=O)(=O)N3CCCCCC3)s2)cc1OC | > 80 µM (inactive) |

| SMILES | IC50 |
| --- | --- |
| CCOc1ccc(C(=O)Nc2nnc(S(=O)(=O)N3CCCCCC3)s2)cc1 | > 80 µM (inactive) |
| CN(C)CCNC(=O)c1ccc2c(c1)NC(=O)/C(=C\c1cccc(Cl)c1)S2 | > 80 µM (inactive) |
| CN(C)CCNC(=O)c1ccc2c(c1)NC(=O)/C(=C\c1ccccc1F)S2 | > 80 µM (inactive) |
| CCN1CCCC1CNC(=O)c1ccc2c(c1)N(Cc1ccccc1F)C(=O)c1ccccc1S2 (stereo not drawn) | > 80 µM (inactive) |
| Cc1cccc(C(=O)Nc2nnc(S(=O)(=O)N3c4ccccc4CC3C)s2)c1 (stereo not drawn) | > 80 µM (inactive) |
| CCN1CCCC1CNC(=O)c1ccc2c(c1)NC(=O)c1ccccc1S2 (stereo not drawn) | > 80 µM (inactive) |
| CCN(CC)CCNC(=O)c1ccc2c(c1)NC(=O)/C(=C\c1ccc(OC)cc1)S2 | > 80 µM (inactive) |
| Cc1cccc(C(=O)Nc2nnc(S(=O)(=O)N3CCC(C)CC3)s2)c1 | > 80 µM (inactive) |
| COc1ccccc1C(=O)Nc1nnc(S(=O)(=O)N2CCCCCC2)s1 | > 80 µM (inactive) |
| Cc1ccccc1C(=O)Nc1nnc(S(=O)(=O)N2CCCCCC2)s1 | > 80 µM (inactive) |
| O=C(Nc1nnc(S(=O)(=O)N2CCCCCC2)s1)C1CCCCC1 | > 80 µM (inactive) |
| CCN(CC)CCNC(=O)c1ccc2c(c1)NC(=O)/C(=C\c1ccccc1Cl)S2 | > 80 µM (inactive) |
| CCN1CCCC1CNC(=O)c1ccc2c(c1)NC(=O)/C(=C/c1ccccc1F)S2 (stereo not drawn) | > 80 µM (inactive) |
| COc1ccc(C(=O)Nc2nnc(S(=O)(=O)N3CCCCCC3)s2)cc1 | > 80 µM (inactive) |
| Cc1cccc(C(=O)Nc2nnc(S(=O)(=O)N3CCOCC3)s2)c1 | > 80 µM (inactive) |
| CC1Cc2ccccc2N1S(=O)(=O)c1nnc(NC(=O)c2cccc(F)c2)s1 (stereo not drawn) | > 80 µM (inactive) |
| CCN(CC)CCNC(=O)c1ccc2c(c1)N(Cc1ccc(C)cc1)C(=O)c1ccccc1S2 | > 80 µM (inactive) |
| O=C1Nc2cc(C(=O)NCCN3CCCC3)ccc2S/C1=C/c1ccccc1Cl | > 80 µM (inactive) |
| Cc1ccccc1C(=O)Nc1nnc(S(=O)(=O)N2CCCc3ccccc32)s1 | > 80 µM (inactive) |
| Cc1ccc(C(=O)Nc2nnc(S(=O)(=O)N3c4ccccc4CC3C)s2)cc1 (stereo not drawn) | > 80 µM (inactive) |
| Cc1ccc(C(=O)Nc2nnc(S(=O)(=O)N3CCCc4ccccc43)s2)cc1 | > 80 µM (inactive) |
| O=C(Nc1nnc(S(=O)(=O)N2CCCCCC2)s1)c1ccco1 | > 80 µM (inactive) |
| CCN(CC)CCNC(=O)c1ccc2c(c1)NC(=O)/C(=C/c1ccccc1)S2 | > 80 µM (inactive) |

| SMILES | IC50 |
| --- | --- |
| CC1Cc2ccccc2N1S(=O)(=O)c1nnc(NC(=O)c2cccc(Br)c2)s1 (stereo not drawn) | > 80 µM (inactive) |
| CCN(CCNC(=O)c1ccc2c(c1)N(Cc1cc(C)ccc1C)C(=O)c1ccccc1S2)c1ccccc1 | > 80 µM (inactive) |
| CCN1CCCC1CNC(=O)c1ccc2c(c1)N(Cc1ccccc1Cl)C(=O)c1ccccc1S2 (stereo not drawn) | > 80 µM (inactive) |
| CCN(CC)CCNC(=O)c1ccc2c(c1)N(Cc1cc(C)ccc1C)C(=O)c1ccccc1S2 | > 80 µM (inactive) |
| O=C(Nc1nnc(S(=O)(=O)N2CCCCCC2)s1)c1cccc(Br)c1 | > 80 µM (inactive) |
| Cc1cccc(C(=O)Nc2nnc(S(=O)(=O)N3CCCc4ccccc43)s2)c1 | > 80 µM (inactive) |
| COc1ccc(/C=C2/Sc3ccc(C(=O)NCCN(C)C)cc3NC2=O)cc1 | > 80 µM (inactive) |
| Cc1ccc(C(=O)Nc2nnc(S(=O)(=O)N3CCCCCC3)s2)cc1 | > 80 µM (inactive) |
| O=C1Nc2cc(C(=O)NCCN3CCCCCC3)ccc2S/C1=C/c1ccccc1F | > 80 µM (inactive) |
| O=C(Nc1nnc(S(=O)(=O)N2CCCCCC2)s1)c1ccccc1F | > 80 µM (inactive) |
| CCN(CC)CCNC(=O)c1ccc2c(c1)N(Cc1ccccc1Cl)C(=O)c1ccccc1S2 | > 80 µM (inactive) |
| O=C(Nc1nnc(S(=O)(=O)N2CCOCC2)s1)c1cccc(F)c1 | > 80 µM (inactive) |
| Cc1cccc(/C=C2/Sc3ccc(C(=O)NCCN4CCCC4)cc3NC2=O)c1 | > 80 µM (inactive) |
| COc1cccc(/C=C2/Sc3ccc(C(=O)NCCN4CCCC4)cc3NC2=O)c1 | > 80 µM (inactive) |
| CCN(CC)CCNC(=O)c1ccc2c(c1)NC(=O)/C(=C\c1ccccc1F)S2 | > 80 µM (inactive) |
| CN(CCNC(=O)c1ccc2c(c1)NC(=O)c1ccccc1S2)C1CCCCC1 | > 80 µM (inactive) |
| O=C1Nc2cc(C(=O)NCCN3CCCCCC3)ccc2S/C1=C/c1ccccc1Cl | > 80 µM (inactive) |
| CCN1CCCC1CNC(=O)c1ccc2c(c1)N(Cc1cccc(F)c1)C(=O)c1ccccc1S2 (stereo not drawn) | > 80 µM (inactive) |
| COc1ccc(/C=C2/Sc3ccc(C(=O)NCCN4CCCCCC4)cc3NC2=O)cc1 | > 80 µM (inactive) |
| O=C(Nc1nnc(S(=O)(=O)N2CCCCCC2)s1)c1cccc(Cl)c1 | > 80 µM (inactive) |
| O=C(Nc1nnc(S(=O)(=O)N2CCCCCC2)s1)c1ccccc1 | > 80 µM (inactive) |
| Cc1cccc(N2CCN(CCNC(=O)c3ccc4c(c3)NC(=O)c3ccccc3S4)CC2)c1C | > 80 µM (inactive) |
